Values quoted from earlier work, collected in patent US6197535A, “Methods for purifying and assaying a conus γ-carboxylase” (University of Utah Research Foundation, priority 1999, dated 2001).

Test system: N-methyl-D-aspartate receptor
Details: cited from earlier work

Conantokin-G
inhibition of the N-methyl-D-aspartate receptor: inhibits
